# Measurements taken from patent publication US8241647B2, “Amphiphilic molecule, molecular assembly comprising the amphiphilic molecule, and use of the molecular assembly” (Waseda University, priority 2007, dated 2012).
# What was measured:
# [1] = Preparation of liposome from mixed lipid (dispersion in water, high-pressure extrusion); assay type: physicochemical; conditions: mixed lipid compound/cholesterol/PEG-Glu2C18 dispersed in water, high-pressure extrusion 0.22 μm
# Method: (§1) Compound 7, 8 or 9 (0.177 mmol), cholesterol (0.179 mmol) and PEG-Glu2C18 (1.0 μmol) were dissolved in benzene, and the mixture was freeze-dried to prepare a mixed lipid. 20 mg of this mixed lipid was dispersed in 1 mL of water for injection, and the resultant mixture was stirred for 6 hours. After that, liposome having a particle size of about 240 nm was prepared by means of the high-pressure extrusion method (final pore diameter: 0.22 μm).
# as §1, with “Compound 3, 12” for “Compound 7, 8”, “or 13” for “or 9”, “(1.0 mmol)” for “(1.0 μmol)”
# [2] = Measurement of zeta potential of liposomes; assay type: physicochemical; conditions: liposome compound/cholesterol/PEG-Glu2C18 (5/5/0.03 molar ratio); acetate buffers 20 mM; 37°C
# Method: Portions of the prepared liposome ([lipid]=10 mg/ml) were respectively added to acetate buffers with different pHs (7.4, 7, 6, 5, 4) (30 mM) to the final concentration of [lipid]=1 mg/mL, and then the zeta potential at 37° C. was measured. Zetasizer 4 manufactured by Malvern was used. A capillary cell was filled with a liposome-dispersed liquid obtained by dilution to the measurement concentration, and the measurement was performed at 37° C. 3 times.
# Portions of the prepared liposome ([lipid]=10 mg/ml) were respectively added to acetate buffers with different pHs (7.4, 7, 6, 5, 4) (20 mM) to the final concentration of [lipid]=1 mg/mL, and then the zeta potential at 37° C. was measured.
# Portions of each of the prepared liposomes ([lipid]=10 mg/ml) were respectively added to acetate buffers with different pHs (7.4, 7, 6, 5, 4) (20 mM) to the final concentration of [lipid]=1 mg/mL, and then the zeta potential at 37° C. was measured.
# [3] = Degree of fusion with anionic liposome (Example 9); conditions: liposome compound/cholesterol/PEG-Glu2C18, 37°C, 30 minutes
# Method: In a manner similar to that in Example 2, the degree of fusion of the pH-responsive liposome with respect to the anionic liposome (DOPC/DPPG, 5/1 (molar ratio)) was calculated. The measurement method was as follows. 50 μL of 1 mM anionic liposome and 50 μL of 9 mM (converted to the mixed lipid basis) pH-responsive liposome were added to 1.9 mL of each of acetate buffers with different pHs and allowed to stand at 37° C. 30 minutes later, […] of the mixture was dividedly poured and added to 1.9 mL of HEPES buffer (pH 7.4). The resultant mixture was transferred to a quartz cell and subjected to fluorescence measurement (λex: 460 nm, 530 nm). The measurement was carried out using RF-5300PC manufactured by Shimadzu.
Structure (SMILES),liposome formation with the compound as main component [1],pH at which the zeta potential changed from negative to positive [2],degree of fusion ([3]; pH 6.5 (maximum)),degree of fusion ([3]; pH 7.4)
CCCCCCCCCCCCCCCCOC(=O)CCC(NC(=O)C(CCCCNC(=O)C(N)CC(=O)O)NC(=O)C(N)CCC(=O)O)C(=O)OCCCCCCCCCCCCCCCC (stereo not shown) [Compound 7],liposome was formed,about 5.5,,
CCCCCCCCCCCCCCCCOC(=O)CCC(NC(=O)C(CCCCNC(=O)C(N)CCC(=O)O)NC(=O)C(N)CC(=O)O)C(=O)OCCCCCCCCCCCCCCCC (stereo not shown) [Compound 8],liposome was formed,about 4.8,,
CCCCCCCCCCCCCCCCOC(=O)CCC(NC(=O)C(CCCCNC(=O)C(N)CC(=O)O)NC(=O)C(N)CC(=O)O)C(=O)OCCCCCCCCCCCCCCCC (stereo not shown) [Compound 9],aggregated,,,
CCCCCCCCCCCCCCOC(=O)CCC(NC(=O)C(CCCCNC(=O)C(N)CCC(=O)O)NC(=O)C(N)CCC(=O)O)C(=O)OCCCCCCCCCCCCCC (stereo not shown) [Compound 12],liposome was formed,about 7.0,over 65%,about 45%
CCCCCCCCCCCCCCCCCCOC(=O)CCC(NC(=O)C(CCCCNC(=O)C(N)CCC(=O)O)NC(=O)C(N)CCC(=O)O)C(=O)OCCCCCCCCCCCCCCCCCC (stereo not shown) [Compound 13],poor dispersibility,,,
